Source: patent publication US9464291B2, “Methods and compositions for the treatment of cancer” (University of South Alabama, priority 2012, dated 2016)
Entries after “also recorded” stand apart in the source; their conditions may differ. Starred links: 1 amine or outer side, 2 acyl side, 3 side chain; linkers in the order of their positions; H or OH if unused. Positions of bridges follow the written chain, without caps; N, C: chain ends. Non-standard residues stand in square brackets, D forms with d. Residues, ends and D or L forms follow the SMILES beside them. Chains are numbered I, II in the order given. Actinocin(9to1) = Cc1c2oc3c(C)ccc(C(=O)[*:1])c3nc-2c(C(=O)[*:2])c(N)c1=O; NMeV = CN[C@H](C(=O)O)C(C)C; Nle = CCCC[C@H](N)C(=O)O; Sar = CNCC(=O)O

B1: interleukin 1-α: interleukin 1-α (protein, UniProt P01583 113-271, looked up)
Interleukin-1 alpha: SAPFSFLSNVKYNFMRIIKYEFILNDALNQSIIRANDQYLTAAALHNLDEAVKFDMGAYKSSKDDAKITVILRISKTQLYVTAQDEDQPVLLKEMPEIPKTITGSETNLLFFWETHGTKNYFTSVAHPNLFIATKQDYWVCLAGGPPSITDFQILENQA

Assays:
ERCC1 = details: human ovarian cancer cells after cisplatin exposure; cited from earlier work
OPN promoter = OPN promoter luciferase reporter assay in melanoma cell lines; format: cell-based, human; details: MDA-MB-435, MCC012A, MCC012F
Protocol: Empty pGL3 vector was used as control. Hedgehog ligands were added to the well 6 h prior to harvesting the cells (approximately 33 hr of initiation of transfection) for assay. Readings were normalized to total protein content. Each parameter was studied in triplicate and the experiment repeated at least 3 times. The data are represented as percent luciferase activity, which was derived as a percent of the relative light units in treated groups compared with the untreated groups.

Gli1 = assay: GLI1 silencing by shRNA constructs in MDA-MB-435 cells, Western blot; format: cell-based, human
Protocol: To evaluate the functional effects of active Hedgehog signaling stable cell lines that were knocked down for GLI1 expression by RNA interference were generated. The efficacy of three shRNA constructs for silencing GLI1 expression was assessed.
Generation of Stable Transfectants—Endogenous GLI1 from MDA-MB-435 cells was silenced using shRNAs (short hairpin RNA) cloned into pSuperior.neo+gfp plasmid (OligoEngine, Seattle, Wash.) (TABLE 1). Introduction of double-stranded RNA has proven to be a powerful tool to suppress gene expression through a process known as RNA interference (P. A. Sharp, Genes Dev. 13, 139 (1999)). However, in some mammalian cells this can provoke a strong cytotoxic response (T. Hunter, T. Hunt, R. J. Jackson, H. D. Robertson, J. Biol. Chem. 250, 409 (1975)). This non-specific effect can be circumvented by use of synthetic short [21- to 22-nucleotide (nt)] interfering RNAs (siRNAs), which can mediate strong and specific suppression of gene expression (S. M. Elbashir et al., Nature 411, 494 (2001)). shRNAs included a target sequence sense strand, a short hairpin, and a target sequence antisense strand.
Western Blotting Analysis—Whole cell lysates were collected in Nonidet P-40 buffer (150 mM NaCl, 50 mM Tris, 1% Nonidet P-40). […] Secreted OPN was assessed by loading an equal quantity of protein from the serum-free conditioned medium. […]

RAW264.7 cells [1] = assay: Osteoclast resorption activity, OAAS plates; format: cell-based, murine; details: DM supplemented with SHH (100 nM) or OPN (100 ng/ml)
Protocol: Osteoclast differentiation and activity assays—Tartarate-resistant acid phosphatase (TRAP) assay was conducted for RAW 264.7 following the manufacturer's protocol (Sigma, St. Louis, Mo.). This assay was indicative of the extent of differentiation. OAAS plates (Osteogenic Core Technologies, Choongnam, Republic of Korea) were utilized to measure osteoclastic activity. RAW 264.7 cells (25×103) were inoculated in 48-well plates. Cells were treated with serum-free conditioned media from breast cancer cells or 100 nM SHH or 100 ng/ml OPN on the following day. Media was changed every two days and the experiments were terminated either on day 6 (day 7 for knockdown experiments, with transfections being done on the sixth day). At the completion, cells were detached with 5% sodium hypochlorite and the wells were observed under a Nikon Eclipse TS 100 microscope at 10× magnification. […] The percentage of area resorbed was calculated using the NIS-Elements BR. 3.1 software.

RAW264.7 cells [2] = assay: Osteoclast differentiation, TRAP assay, RAW264.7; format: cell-based, murine; details: DM supplemented with SHH (100 nM) or OPN (100 ng/ml) vs DM alone
Protocol: Cell lines—Human metastatic breast cancer cells, MDA-MB-231, were cultured in Dulbecco's Modified Eagle's Medium (DMEM/F12; Invitrogen, Carlsbad, Calif.), supplemented with 2 mM L-glutamine, 1 mM sodium pyruvate, 0.02 mM non-essential amino acids, 5% fetal bovine serum, FBS (Atlanta Biologicals, Norcross, Ga.), without antibiotics or antimycotics (cDME/F12). SUM1315 and SUM159 cells (DiMeo, T. A., et al. (2009) Cancer Res 69, 5364-5373) (Asterand, Detroit, Mich.) were cultured in DMEM/F12 supplemented with […] insulin, 5% FBS (Atlanta Biologicals) and either 10 ng/ml EGF or 1 ng/ml hydrocortisone, without antibiotics or antimycotics. The SUM1315 cells are derived from a metastasis in a patient with infiltrating ductal carcinoma; SUM159 cells were derived from a primary breast tumor with metaplastic ccarcinoma. RAW264.7 (ATCC, TIB 71) cells, a murine pre-osteoclastic line capable of differentiation and mineralization in culture (in presence of RANKL and MCSF), were grown in DMEM with L-glutamine (ATCC, 30-2002) supplemented with 10% FBS. A 2× differentiation medium (DM) was formulated for the RAW 264.7 cells comprising RAW264.7 growth medium supplemented with 20% FBS, RANKL (100 ng/ml) and M-CSF (40 ng/ml) (Matsubara, T., et al. J Bone Miner Res 25, 1068-1076). Conditioned media was harvested from breast cancer cells and mixed in a 1:1 ratio with double strength differentiation medium to assess the effect on osteoclast differentiation. 1×DM was used as control or wherever SHH (R & D Systems, Minneapolis, Minn.) or OPN (R & D Systems) was used alone. The medium on the RAW264.7 cells was replenished every 48 hours. In order to assess the effect of secreted Hh ligands, the neutralizing 5E1 antibody was used (Developmental Studies Hybridoma Bank, at the University of Iowa, Iowa). The amount of 5E1 antibody used for the studies was determined following titration of the antibody with respect to its effects on osteoclast differentiation. Medium was supplemented with 5E1 (2.5 μg/ml) and was changed on alternate days until the end of the experiment. The effect of OPN on osteoclast activity was assessed by transfecting an OPN shRNA-expressing construct on day 6 post-induction of differentiation. Fresh DM was added the following day and cells were allowed to grow for another 12 hours before termination of experiment. GLI1 expression was silenced in the SUM1315 cells using shRNA targeting GLI1 into pSuperior. gfp+neo (Oligoengine, Wash., USA). […]
Osteoclast differentiation and activity assays—Tartarate-resistant acid phosphatase (TRAP) assay was conducted for RAW 264.7 following the manufacturer's protocol (Sigma, St. Louis, Mo.). […] The percentage of area resorbed was calculated using the NIS-Elements BR. […]

Molecule | effect on ERCC1 up-regulation (ERCC1) | further results
CC[C@H](C)[C@@H]1NC(=O)CNC(=O)[C@@H]2Cc3c([nH]c4cc(O)ccc34)[S+]([O-])C[C@@H](NC(=O)CNC1=O)C(=O)N[C@@H](CC(N)=O)C(=O)N1C[C@H](O)C[C@H]1C(=O)N[C@@H]([C@@H](C)[C@@H](O)CO)C(=O)N2 (stereo in doubt) [α-amanitin] | blunted ERCC1 up-regulation | 
CCCC[C@@H](C=O)NC(=O)[C@H](CC(C)C)NC(=O)[C@H](CC(C)C)NC(C)=O [N-acetyl-leucyl-leucyl-norleucinal] (Ac-Leu-Leu-[Nle]-aldehyde) | blunted ERCC1 up-regulation | 
Cc1cc(C)c(/C=C2\C(=O)Nc3ccccc32)[nH]1 [SU5416] | blunted ERCC1 up-regulation | 
Cc1c2oc3c(C)ccc(C(=O)N[C@@H]4C(=O)N[C@H](C(C)C)C(=O)N5CCC[C@H]5C(=O)N(C)CC(=O)N(C)[C@@H](C(C)C)C(=O)O[C@@H]4C)c3nc-2c(C(=O)N[C@@H]2C(=O)N[C@H](C(C)C)C(=O)N3CCC[C@H]3C(=O)N(C)CC(=O)N(C)[C@@H](C(C)C)C(=O)O[C@@H]2C)c(N)c1=O [actinomycin D] (I: T[dV]P[Sar][NMeV] / II: T[dV]P[Sar][NMeV]; ester I:1-I:C, II:1-II:C; linker I:N-II:N via Actinocin(9to1)) | blunted ERCC1 up-regulation | 
[Cr] [chromium] | blunted ERCC1 up-regulation | 
C[C@@H]1C[C@@H]([C@H](O)CC2CC(=O)NC(=O)C2)C(=O)[C@@H](C)C1 [cycloheximide] | blunted ERCC1 up-regulation | 
CO[C@H]1[C@@H](OC)C[C@H](C)[C@@H](OC)C2=CC(=O)C=C(NC(=O)/C(C)=C/C=C\[C@H](OC)[C@@H](OC(N)=O)/C(C)=C/[C@@H]1C)C2=O [herbimycin A] | blunted ERCC1 up-regulation | 
CC(=O)N[C@@H](CSC(=O)[C@]1([C@@H](O)C(C)C)NC(=O)[C@H](C)[C@@H]1O)C(=O)O [lactacystin] | blunted ERCC1 up-regulation | 
[Pt] [platinum] | blunted ERCC1 up-regulation | 
C[C@H]1CC[C@]2(NC1)O[C@H]1C[C@H]3[C@@H]4CC[C@H]5C[C@@H](O)CC[C@]5(C)[C@H]4CC[C@]3(C)[C@H]1[C@@H]2C [tomatidine] |  | OPN promoter activity (OPN promoter): had no effect on the promoter activity; OPN promoter activity (OPN promoter; listed as Tomatidine): had no effect on the promoter activity of OPN
GLI1 shRNA-2: shRNA construct targeting GLI1 mRNA sequence TCATCAACTCGCGATGCAC, position 325 (target site or template, no part of the molecule) |  | GLI1 silencing (Gli1; shRNA cloned into pSUPERIOR): effective at silencing GLI1; also recorded: more effective GLI1 silencing; OPN expression (Gli1; shRNA-transfected cells): decreased OPN expression
OPN: recombinant human osteopontin (R & D Systems) |  | osteoclast activity (area resorbed) (RAW264.7 cells [1]): notably enhances (p<0.001) osteoclast activity; numbers of TRAP stained multinucleate cells (RAW264.7 cells [2]): significant (p<0.005) increase
B1 | blunted ERCC1 up-regulation | 
